Patent US12227516B1, “Selective COX-2 inhibition of 2-(substituted benzyl)-3,5,6,7-tetrahydro-4H-cyclopenta[4,5]thieno[2,3-d]pyrimidin-4-ones and 4-fluoro-n-(4-oxo-3,5,6,7-tetrahydro-4H-cyclopenta[4,5]thieno[2,3-d]pyrimidin-2-yl)benzamide as anti-inflammatory agents” (KING FAISAL UNIVERSITY, priority 2023, dated 2025)

Experiments:
ovine COX-1 = target: T1, ovine COX-1 (Ovis aries, UniProt P05979); test: COX (ovine) Inhibitor Screening Assay, COX-1; assay type: biochemical; details: PGF2α by EIA, 18 hours of incubation
T1 sequence (P05979 25-600): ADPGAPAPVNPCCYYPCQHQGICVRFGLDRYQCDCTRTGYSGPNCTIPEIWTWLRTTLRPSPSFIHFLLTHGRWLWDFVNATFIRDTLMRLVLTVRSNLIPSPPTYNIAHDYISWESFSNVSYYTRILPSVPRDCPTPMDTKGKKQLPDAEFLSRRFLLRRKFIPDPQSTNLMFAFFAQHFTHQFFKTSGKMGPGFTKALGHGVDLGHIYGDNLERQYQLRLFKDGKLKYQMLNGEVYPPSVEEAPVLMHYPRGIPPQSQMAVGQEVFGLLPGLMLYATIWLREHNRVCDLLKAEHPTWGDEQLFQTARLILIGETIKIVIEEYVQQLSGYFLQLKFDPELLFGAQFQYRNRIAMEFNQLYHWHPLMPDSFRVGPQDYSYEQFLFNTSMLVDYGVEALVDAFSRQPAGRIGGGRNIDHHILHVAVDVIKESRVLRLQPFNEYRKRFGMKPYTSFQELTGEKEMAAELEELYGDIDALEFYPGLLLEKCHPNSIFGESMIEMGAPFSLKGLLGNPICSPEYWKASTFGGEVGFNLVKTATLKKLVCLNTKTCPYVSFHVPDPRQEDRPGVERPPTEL
Procedure: (§1) The COX (ovine) Inhibitor Screening Assay was performed mainly to determine the selective inhibition of tested compounds (6, 7, 8 and 9) towards the ovine COX-1 and human recombinant COX-2 isoenzymes. Adding arachidonic acid (AA) helped convert the COX component into PGG2, followed by a reduction of PGG2 into PGH2. The following addition of SnCl2 converted PGH2 into PGF2α. The assay directly measures the PGF2α via enzyme immunoassay (EIA) using a broadly specific antiserum that is bound to all PG tracers. Depending on the tested compounds inhibitory effect, the concentration of PGF2α in each well varied and was inversely proportional to the amount of PG tracers that were able to bind to the antiserum. PG tracers-antiserum complex was left to bind to the mouse monoclonal anti-rabbit antibody that had been coated to the well during the 18 hours of incubation. Ellman's reagent was added to give distinct yellow coloration to the products from this enzymatic reaction, which absorbed strongly at 412 nm. The intensity of the color was proportional to the amount of PG tracers-antiserum complex bound to the well, which was inversely proportional to the concentration of PGF2α present.
(§2) The inhibitory activity of tested compounds was determined based on IC50 values, whereas the selectivity was based on their selectivity indices (SI), which are defined as COX-1 IC50/COX-2 IC50. In the assay system, indomethacin was used as a non-selective COX inhibitor standard, while NS-398 was used as a COX-2 selective inhibitor standard.

human recombinant COX-2 = target: T2, human recombinant COX-2 (Homo sapiens, UniProt P35354); test: COX (ovine) Inhibitor Screening Assay, COX-2; assay type: biochemical; details: for IC50: human recombinant COX-2, PGF2α by EIA, 18 hours of incubation; for selectivity of inhibition, COX-2 versus COX-1, in words: ovine COX-1 versus human recombinant COX-2
T2 sequence (P35354 18-604): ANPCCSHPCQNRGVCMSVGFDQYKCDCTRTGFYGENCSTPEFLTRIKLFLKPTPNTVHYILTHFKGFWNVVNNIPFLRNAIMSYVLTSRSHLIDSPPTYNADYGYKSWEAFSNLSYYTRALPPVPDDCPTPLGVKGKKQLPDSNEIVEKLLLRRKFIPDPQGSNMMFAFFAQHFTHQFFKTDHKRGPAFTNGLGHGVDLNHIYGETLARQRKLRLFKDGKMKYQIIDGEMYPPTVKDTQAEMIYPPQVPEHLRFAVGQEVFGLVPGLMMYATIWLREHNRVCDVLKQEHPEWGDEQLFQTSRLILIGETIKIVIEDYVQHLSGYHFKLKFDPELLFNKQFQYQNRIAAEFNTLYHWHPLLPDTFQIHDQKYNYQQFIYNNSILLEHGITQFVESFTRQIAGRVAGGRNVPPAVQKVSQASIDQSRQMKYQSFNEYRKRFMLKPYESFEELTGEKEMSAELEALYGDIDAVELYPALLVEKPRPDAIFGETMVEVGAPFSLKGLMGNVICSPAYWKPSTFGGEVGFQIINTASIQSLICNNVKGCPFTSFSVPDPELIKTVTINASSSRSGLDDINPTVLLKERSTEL
Procedure: as §1, §2

Row | Compound | IC50 (ovine COX-1) [µM] | SI (selectivity index, COX-1 IC50/COX-2 IC50) (human recombinant COX-2) | IC50 (human recombinant COX-2) [µM] | selectivity of inhibition, COX-2 versus COX-1, in words (human recombinant COX-2)
1 | COc1ccc(-c2nc3sc4c(c3c(=O)[nH]2)CCC4)cc1 [Compound 8, 2-(4-Methoxyphenyl)-3,5,6,7-tetrahydro-4H-cyclopenta[4,5]thieno[2,3-d]pyrimidin-4-one] | 83.8 | 11.41 | 7.3 | mild selective inhibition against COX-2
2 | COc1ccc(Cc2nc3sc4c(c3c(=O)[nH]2)CCC4)cc1 [Compound 7, 2-(4-Methoxybenzyl)-3,5,6,7-tetrahydro-4H-cyclopenta[4,5]thieno[2,3-d]pyrimidin-4-one] | 224 | 6.98 | 32.1 | mild selective inhibition against COX-2
3 | O=C(Nc1nc2sc3c(c2c(=O)[nH]1)CCC3)c1ccc(F)cc1 [Compound 9, 4-Fluoro-N-(4-oxo-3,5,6,7-tetrahydro-4H-cyclopenta[4,5]thieno[2,3-d]pyrimidin-2-yl)benzamide] | 69.2 | 1.26 | 54.9 | mild selective inhibition against COX-2
4 | O=c1[nH]c(Cc2ccc(F)cc2)nc2sc3c(c12)CCC3 [Compound 6, 2-(4-Fluorobenzyl)-3,5,6,7-tetrahydro-4H-cyclopenta[4,5]thieno[2,3-d]pyrimidin-4-one] | 38.5 | 0.68 | 56.4 | mild selective inhibition against COX-2
